The text below walks through data of DBAASP.

Holding throughout (assay): ≥ marks a high value that may be exact or a test limit, other limits are often not marked, values filed in µg/mL are converted to µM
One test has as its system Escherichia coli TOP 10.
For test [1], the system named is Staphylococcus aureus ATCC 12600.
The subject of test [2] is Pseudomonas aeruginosa ATCC 27853.
Test [3] deals with Escherichia coli ATCC 25922.
For test [4], the system named is Streptococcus mutans ATCC 25175.
Test [5] deals with Staphylococcus aureus ATCC 6538.
The subject of the next test is Escherichia coli D21.
The test system of test [6] is Pseudomonas aeruginosa KCTC 1637.
Test [7] has as its system Salmonella typhimurium KCTC 1926.
Test [8] relates to Candida albicans TIMM 1768.
Test [9] deals with Staphylococcus aureus KCTC 1621.
The test system of test [10] is Bacillus subtilis KCTC 1918.
Test [11] relates to Escherichia coli KCTC 1682.
In test [12] the test system is Trichosporon beigelii KCTC 7707.

SMILES strings stand for the structures. ≈ marks a conversion by molar mass, not a printed value.

Usually MIC stands for the lowest concentration that inhibits growth of the organism. Read a high MIC as weaker potency. In the test on Escherichia coli TOP 10, `CC[C@H](C)[C@H](N)C(=O)N[C@@H](CCCCN)C(=O)N[C@@H](C)C(=O)N[C@@H](CC(C)C)C(=O)N[C@@H](CC(C)C)C(=O)N[C@@H](C)C(=O)N[C@@H](CC(C)C)C(=O)N1CCC[C@H]1C(=O)N[C@@H](CCCCN)C(=O)N[C@@H](CC(C)C)C(=O)N[C@@H](C)C(=O)N[C@@H](CCCCN)C(=O)N[C@@H](CCCCN)C(=O)N[C@H](C(=O)N[C@@H](C)C(=O)N[C@@H](CCCCN)C(=O)N[C@@H](CCCCN)C(=O)N[C@@H](Cc1ccccc1)C(=O)N[C@@H](CC(C)C)C(=O)N[C@@H](CCCCN)C(N)=O)[C@@H](C)CC` [IKALLALPKLAKKIAKKFLK] yielded a minimum inhibitory concentration (MIC) of 22.4 µM (≈ 50 µg/mL).

For the molecule `CC[C@H](C)[C@H](NC(=O)[C@H](C)NC(=O)CNC(=O)[C@H](Cc1ccccc1)NC(=O)[C@H](CC(C)C)NC(=O)CN)C(=O)N[C@@H](C)C(=O)NCC(=O)N[C@@H](Cc1ccccc1)C(=O)N[C@H](C(=O)N[C@@H](CCCCN)C(=O)NCC(=O)NCC(=O)N[C@@H](Cc1c[nH]c2ccccc12)C(=O)N[C@@H](CCC(N)=O)C(=O)NCC(=O)N[C@@H](CCSC)C(=O)N[C@H](C(=O)N[C@@H](CCCCN)C(=O)NCC(N)=O)C(C)C)[C@@H](C)CC` [GLFGAIAGFIKGGWQGMVKG], the minimal inhibitory concentration (MIC) in [1] was 15.7 µM (≈ 31.3 µg/mL); in test [2], more than 62.7 µM; in test [3], 15.7 µM (≈ 31.3 µg/mL); in test [4], 11.1 µM (≈ 22.1 µg/mL).

Consider `CC[C@H](C)[C@H](NC(=O)[C@H](CCCCN)NC(=O)[C@H](CCCN=C(N)N)NC(=O)[C@@H](NC(=O)[C@H](CC(C)C)NC(=O)[C@H](CCC(N)=O)NC(=O)[C@@H](NC(=O)[C@H](Cc1ccc(O)cc1)NC(=O)[C@H](CCC(N)=O)NC(=O)[C@@H]1CCCN1C(=O)[C@@H](NC(=O)[C@H](CC(C)C)NC(=O)[C@@H](NC(=O)[C@H](Cc1c[nH]c2ccccc12)NC(=O)[C@H](CC(C)C)NC(=O)[C@H](CO)NC(=O)[C@@H]1CCCN1C(=O)[C@H](Cc1cnc[nH]1)NC(=O)[C@@H](N)Cc1ccccc1)C(C)C)[C@@H](C)CC)[C@@H](C)CC)[C@@H](C)CC)C(=O)N[C@@H](CC(C)C)C(=O)N[C@@H](CCCCN)C(=O)N[C@@H](CO)C(=O)NCC(=O)O` [FHPSLWVLIPQYIQLIRKILKSG], for which the values for the MIC (in test [5]; in the test with Escherichia coli D21; in test [3]) were 35.4 µM (≈ 97.2 µg/mL), not below 50 µM and more than 50 µM, respectively.

As to `CC[C@H](C)[C@H](NC(=O)[C@H](CO)NC(=O)[C@H](CCCN=C(N)N)NC(=O)[C@@H](NC(=O)[C@H](CS)NC(=O)[C@H](CO)NC(=O)[C@@H]1CCCN1C(=O)[C@H](CC(C)C)NC(=O)[C@H](Cc1ccccc1)NC(=O)[C@H](CCCN=C(N)N)NC(=O)[C@@H](N)CCCCN)C(C)C)C(=O)N[C@@H](CCC(N)=O)C(=O)N[C@@H](CC(N)=O)C(=O)N[C@@H](CC(C)C)C(=O)N[C@@H](CC(=O)O)C(=O)N[C@@H](CC(=O)O)C(=O)N[C@@H](C)C(=O)N[C@@H](CC(C)C)C(=O)N1CCC[C@H]1C(=O)N[C@H](C(=O)N1CCC[C@H]1C(=O)N[C@@H](CCC(=O)O)C(=O)N[C@@H](CCC(=O)O)C(=O)N[C@@H](Cc1ccccc1)C(N)=O)[C@@H](C)O` [KRFLPSCVRSIQNLDDALPTPEEF], the minimum inhibitory concentration (MIC) in the test with Escherichia coli TOP 10 was not below 36 µM.

Turning to `CC(C)C[C@H](NC(=O)[C@H](CCCCN)NC(=O)[C@H](CCCCN)NC(=O)[C@H](Cc1c[nH]c2ccccc12)NC(=O)[C@@H](N)CCCCN)C(=O)N[C@@H](CC(C)C)C(=O)N[C@@H](CCCCN)C(=O)N[C@@H](CCCCN)C(=O)N1CCC[C@H]1C(=O)N[C@@H](CC(C)C)C(=O)N[C@@H](CC(C)C)C(=O)N[C@@H](CCCCN)C(=O)N[C@@H](CCCCN)C(N)=O` [KWKKLLKKPLLKK], the minimum inhibitory concentration (MIC) stood at 12.5 µM (≈ 20.6 µg/mL) in test [6]; 1.56 µM (≈ 2.57 µg/mL) in test [7]; 25 µM (≈ 41.3 µg/mL) in test [8]; 12.5 µM (≈ 20.6 µg/mL) in test [9]; 6.25 µM (≈ 10.3 µg/mL) in test [10]; 12.5 µM (≈ 20.6 µg/mL) in test [11]. Further, in test [12], the minimum inhibitory concentration (MIC) was found to be 25 µM (≈ 41.3 µg/mL).
